In PubChem BioAssay AID1963961 (Molecular Pharmacology Branch, DTP, NCI, 2024):

System: K98450-129-R-PDC multicell spheroids, viability
Assay: Anticancer human tumor K98450-129-R-PDC patient-derived colon adenocarcinoma cell line growth inhibition [PI3K]
Details: for IC50: curve of first compound; for viability, T/C: stronger effect = lower value
Text: Combinatorial screen of targeted agents with the PI3K inhibitors inavolisib, alpelisib, duvelisib, and copanlisib in multi-cell type tumor spheroids
A high-throughput screen of multi-cell type tumor spheroids was designed to identify active combinations of targeted small molecules and PI3K pathway inhibitors. Complex spheroids include a stromal component modeled by human endothelial cells (HUVEC) and fibroblasts modeled by human mesenchymal stem cells (MSCs). The concentration ranges selected for each drug and investigational agent were based upon clinically achievable concentrations if the clinical Cmax of the agent was known.
Compounds. The drugs and investigational agents: inavolisib (NSC800729), alpelisib (NSC765974), duvelisib (NSC772469), copanlisib (NSC816437), ipatasertib (NSC767898), afuresertib (NSC778305), talazoparib (NSC767125), sapanisertib (NSC764658), selumetinib (NSC741078), tovorafenib (DAY101, NSC766906), vemurafenib (NSC761431), ravoxertinib (NSC781343), sotorasib (NSC818433), MRTX1133 (NSC 836407), abemaciclib (NSC 768073), palbociclib (NSC758247), venetoclax (NSC 766270), SY5609 (NSC837396), enzalutamide (NSC755605), and darolutamide (NSC825331), were obtained from the National Cancer Institute (NCI) Developmental Therapeutics Program Chemical Repository. The FDA-approved anticancer drug set is available from the NCI Developmental Therapeutics Program. […] The stock solutions were prepared in dimethyl sulfoxide (DMSO, Sigma-Aldrich, St. Louis, MO, cat. D2650) at 800-fold the tested concentration and stored at -70 degrees C prior to their use. All drugs and investigational agents were tested over a range starting from a high concentration at or near the clinical Cmax and decreasing in half-log increments. If the clinical Cmax for an agent had not been determined, the highest concentration tested was 10 microM.
Cell Culture. All cells were maintained in an incubator at 37 degrees C and 5% CO2 with 95% humidity. The PDC lines were cultured according to standard operating procedures established by the NCI PDMR (https://pdmr.cancer.gov/sops/default.htm). All PDCs were thawed and cultured in Matrigel-coated flasks prepared with a working solution of 1X Ham's F-12 nutrient mix, without supplementation (Invitrogen, Waltham, MA, cat. 11765054), 100 U/mL penicillin-streptomycin (Invitrogen, cat. 15140122), and 2.5% Matrigel (Corning Inc., Corning, NY, cat. 354248) for the first three passages. The 354836-022-R-J1-PDC, 475296-252-R-J1-PDC, and 997726-040-R-J2-PDC lines were cultured in 6A media, which includes advanced DMEM/F-12 (Thermo Fisher Scientific, cat. 12634028), 10 mM HEPES (Thermo Fisher Scientific, cat. 15630080), 1X GlutaMAX supplement (Thermo Fisher Scientific, cat. 35050061), 0.1 mg/mL primocin (InvivoGen, San Diego, CA, cat. ant-pm-2), 10% defined fetal bovine serum, heat inactivated (HyClone Laboratories Inc., Logan, UT, cat. SH30070.03HI), 50% L-WRN conditioned media (ATCC, cat. CRL-3276), 1.25 mM N-Acetyl-L-cysteine (Sigma-Aldrich, cat. A9165), 10 mM nicotinamide (Sigma-Aldrich, cat. N0636), 1X B-27 supplement (Thermo Fisher Scientific, cat. 17504044), 1X N-2 supplement (Thermo Fisher Scientific, cat. 17502048), and 10 microM Y-27632 dihydrochloride (Tocris Bioscience, Bristol, United Kingdom, cat. 1254). The 624824-186-R-J2-PDC line was cultured in 6C/Colon 1B media, which includes all 6A media components plus 50 ng/mL human EGF recombinant protein (Thermo Fisher Scientific, cat. PHG0311). […]

[1] = second compound 0.0316 µM, first compound 0.0316 µM
[2] = second compound 0.0316 µM, first compound 0.1 µM
[3] = second compound 0.1 µM, first compound 0.0316 µM
[4] = second compound 0.1 µM, first compound 0.1 µM
[5] = second compound 0.316 µM, first compound 0.0316 µM
[6] = second compound 0.316 µM, first compound 0.1 µM
[7] = second compound 1 µM, first compound 0.0316 µM
[8] = second compound 1 µM, first compound 0.1 µM
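Further: spheroids exposed to agents for seven days before read-out.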

CNC(=O)c1ccc(N2C(=S)N(c3ccc(C#N)c(C(F)(F)F)c3)C(=O)C2(C)C)cc1F + Cc1nc(NC(=O)N2CCCC2C(N)=O)sc1-c1ccnc(C(C)(C)C(F)(F)F)c1
IC50 (second compound 0.0316 µM): > 10 µM | IC50 (second compound 0.1 µM): > 10 µM | IC50 (second compound 0.316 µM): > 10 µM | IC50 (second compound 1 µM): > 10 µM | IC50 (second compound 3.16 µM): > 10 µM | IC50 (second compound 10 µM): > 10 µM | viability, T/C [1]: 108% | viability, T/C [2]: 93% | viability, T/C (second compound 0.0316 µM, first compound 0.316 µM): 106% | viability, T/C (second compound 0.0316 µM, first compound 1 µM): 94.2% | viability, T/C (second compound 0.0316 µM, first compound 3.16 µM): 109% | viability, T/C (second compound 0.0316 µM, first compound 10 µM): 111% | viability, T/C [3]: 111% | viability, T/C [4]: 92.2% | viability, T/C (second compound 0.1 µM, first compound 0.316 µM): 102% | viability, T/C (second compound 0.1 µM, first compound 1 µM): 89.2% | viability, T/C (second compound 0.1 µM, first compound 3.16 µM): 104% | viability, T/C (second compound 0.1 µM, first compound 10 µM): 109% | viability, T/C [5]: 97% | viability, T/C [6]: 96.2% | viability, T/C (second compound 0.316 µM, first compound 0.316 µM): 94.8% | viability, T/C (second compound 0.316 µM, first compound 1 µM): 97.3% | viability, T/C (second compound 0.316 µM, first compound 3.16 µM): 105% | viability, T/C (second compound 0.316 µM, first compound 10 µM): 109% | viability, T/C [7]: 90.5% | viability, T/C [8]: 91.2% | viability, T/C (second compound 1 µM, first compound 0.316 µM): 87.5% | viability, T/C (second compound 1 µM, first compound 1 µM): 91.4% | viability, T/C (second compound 1 µM, first compound 3.16 µM): 101% | viability, T/C (second compound 1 µM, first compound 10 µM): 99% | viability, T/C (second compound 3.16 µM, first compound 0.0316 µM): 81.1% | viability, T/C (second compound 3.16 µM, first compound 0.1 µM): 88.2% | viability, T/C (second compound 3.16 µM, first compound 0.316 µM): 87.1% | viability, T/C (second compound 3.16 µM, first compound 1 µM): 81.8% | viability, T/C (second compound 3.16 µM, first compound 3.16 µM): 92% | viability, T/C (second compound 3.16 µM, first compound 10 µM): 83.7% | viability, T/C (second compound 10 µM, first compound 0.0316 µM): 70.2% | viability, T/C (second compound 10 µM, first compound 0.1 µM): 69.2% | viability, T/C (second compound 10 µM, first compound 0.316 µM): 74.7% | viability, T/C (second compound 10 µM, first compound 1 µM): 71.1% | viability, T/C (second compound 10 µM, first compound 3.16 µM): 79% | viability, T/C (second compound 10 µM, first compound 10 µM): 73.5%

Cn1ncnc1[C@H]1c2n[nH]c(=O)c3cc(F)cc(c23)N[C@@H]1c1ccc(F)cc1 + COc1c(OCCCN2CCOCC2)ccc2c3n(c(=NC(=O)c4cnc(N)nc4)nc12)CCN3
IC50 (second compound 0.00316 µM): > 0.1 µM | IC50 (second compound 0.01 µM): > 0.1 µM | IC50 (second compound 0.0316 µM): > 0.1 µM | IC50 (second compound 0.1 µM): > 0.1 µM | IC50 (second compound 0.316 µM): > 0.1 µM | IC50 (second compound 1 µM): > 0.1 µM | viability, T/C (second compound 0.00316 µM, first compound 0.000316 µM): 98.6% | viability, T/C (second compound 0.00316 µM, first compound 0.001 µM): 95.2% | viability, T/C (second compound 0.00316 µM, first compound 0.00316 µM): 96.7% | viability, T/C (second compound 0.00316 µM, first compound 0.01 µM): 98% | viability, T/C (second compound 0.00316 µM, first compound 0.0316 µM): 100% | viability, T/C (second compound 0.00316 µM, first compound 0.1 µM): 92.9% | viability, T/C (second compound 0.01 µM, first compound 0.000316 µM): 91.8% | viability, T/C (second compound 0.01 µM, first compound 0.001 µM): 89.6% | viability, T/C (second compound 0.01 µM, first compound 0.00316 µM): 95.1% | viability, T/C (second compound 0.01 µM, first compound 0.01 µM): 96.9% | viability, T/C (second compound 0.01 µM, first compound 0.0316 µM): 94.6% | viability, T/C (second compound 0.01 µM, first compound 0.1 µM): 91.9% | viability, T/C (second compound 0.0316 µM, first compound 0.000316 µM): 90.1% | viability, T/C (second compound 0.0316 µM, first compound 0.001 µM): 88.7% | viability, T/C (second compound 0.0316 µM, first compound 0.00316 µM): 94.5% | viability, T/C (second compound 0.0316 µM, first compound 0.01 µM): 90.6% | viability, T/C [1]: 89.5% | viability, T/C [2]: 70.1% | viability, T/C (second compound 0.1 µM, first compound 0.000316 µM): 92.3% | viability, T/C (second compound 0.1 µM, first compound 0.001 µM): 85.5% | viability, T/C (second compound 0.1 µM, first compound 0.00316 µM): 88.6% | viability, T/C (second compound 0.1 µM, first compound 0.01 µM): 89.8% | viability, T/C [3]: 89.5% | viability, T/C [4]: 78.6% | viability, T/C (second compound 0.316 µM, first compound 0.000316 µM): 56.6% | viability, T/C (second compound 0.316 µM, first compound 0.001 µM): 63.6% | viability, T/C (second compound 0.316 µM, first compound 0.00316 µM): 64.5% | viability, T/C (second compound 0.316 µM, first compound 0.01 µM): 48.5% | viability, T/C [5]: 59.1% | viability, T/C [6]: 65.4% | viability, T/C (second compound 1 µM, first compound 0.000316 µM): 49.9% | viability, T/C (second compound 1 µM, first compound 0.001 µM): 58% | viability, T/C (second compound 1 µM, first compound 0.00316 µM): 52.8% | viability, T/C (second compound 1 µM, first compound 0.01 µM): 62% | viability, T/C [7]: 56.5% | viability, T/C [8]: 54.1%
